Measurements taken from US9695155B2, “Herbicidal substituted pyrimidinyloxy benzene compounds” (E. I. DU PONT DE NEMOURS AND COMPANY, priority 2013, dated 2017).

How the values were obtained:
Test in all cases: Test F preemergence
Conditions in all cases: 21 days, scale 0 to 100
[1] = system: buckwheat, wild; format: in vivo, Polygonum convolvulus
Excerpt: (§1) Seeds of plant species selected from bermudagrass (Cynodon dactylon), surinam grass (Brachiaria decumbens), large (Lg) crabgrass (Digitaria sanguinalis), crabgrass, naked (naked crabgrass, Digitaria nuda), foxtail, green (green foxtail, Setaria viridis), johnsongrass (Sorghum halepense), kochia (Kochia scoparia), morningglory (pitted morningglory, Ipomoea lacunosa), nutsedge, purple (purple nutsedge, Cyperus rotundus), ragweed (common ragweed, Ambrosia elatior), mustard, black (black mustard, Brassica nigra), guineagrass (Panicum maximum), dallisgrass (Paspalum dilatatum), barnyardgrass (Echinochloa crus-galli), sandbur (southern sandbur, Cenchrus echinatus), sowthistle (common sowthistle, Sonchus oleraceous), Italian ryegrass (Lolium multiflorum), signalgrass (broadleaf signalgrass, Brachiaria platyphylla), dayflower (Virginia (VA) dayflower, Commelina virginica), bluegrass (annual bluegrass, Poa annua), quackgrass (Elytrigia repens), mallow (common mallow, Malva sylvestris), buckwheat, wild (wild buckwheat, Polygonum convolvulus), leafy spurge (Euphorbia esula), chickweed (common chickweed, Stellaria media), wild poinsettia (Euphorbia heterophylla), and pigweed (Amaranthus retroflexus) were planted into a blend of loam soil and sand and treated preemergence with test chemicals formulated in a non-phytotoxic solvent mixture which included a surfactant.
(§2) Treated plants and controls were maintained in a greenhouse for 21 days, after which time all species were compared to controls and visually evaluated. Plant response ratings, summarized in Table F, are based on a scale of 0 to 100 where 0 is no effect and 100 is complete control. A dash (-) response means no test result.

[2] = system: morningglory (pitted morningglory); format: in vivo, Ipomoea lacunosa
Excerpt: as §1, §2

[3] = system: kochia; format: in vivo, Kochia scoparia
Excerpt: as §1, §2

[4] = system: nutsedge, purple; format: in vivo, Cyperus rotundus
Excerpt: as §1, §2

SMILES | Plant response rating, Buckwheat, Wild ([1]; 16 g ai/ha) | Plant response rating, Buckwheat, Wild ([1]; 31 g ai/ha) | Plant response rating, Buckwheat, Wild ([1]; 62 g ai/ha) | Plant response rating, Buckwheat, Wild ([1]; 125 g ai/ha) | Plant response rating, Buckwheat, Wild ([1]; 250 g ai/ha) | Plant response rating, Morningglory ([2]; 16 g ai/ha) | Plant response rating, Morningglory ([2]; 31 g ai/ha) | Plant response rating, Morningglory ([2]; 62 g ai/ha) | Plant response rating, Morningglory ([2]; 125 g ai/ha) | Plant response rating, Morningglory ([2]; 250 g ai/ha) | Plant response rating, Kochia ([3]; 16 g ai/ha) | Plant response rating, Kochia ([3]; 31 g ai/ha) | Plant response rating, Kochia ([3]; 62 g ai/ha) | Plant response rating, Kochia ([3]; 125 g ai/ha) | Plant response rating, Kochia ([3]; 250 g ai/ha) | Plant response rating, Nutsedge, Purple ([4]; 16 g ai/ha) | Plant response rating, Nutsedge, Purple ([4]; 31 g ai/ha) | Plant response rating, Nutsedge, Purple ([4]; 62 g ai/ha) | Plant response rating, Nutsedge, Purple ([4]; 125 g ai/ha) | Plant response rating, Nutsedge, Purple ([4]; 250 g ai/ha)
N#Cc1cccc(Oc2ncc(F)cn2)c1-n1cc(C(F)(F)F)cn1 [Compound 79, 3-[(5-fluoro-2-pyrimidinyl)oxy]-2-[4-(trifluoromethyl)-1H-pyrazol-1-yl]benzonitrile] | 98 | 100 | 100 | 100 | 100 | 98 | 100 | 100 | 100 | 100 | 100 | 100 | 100 | 100 | 100 | 0 | 10 | 70 | 70 | 85
N#Cc1cccc(Oc2ncc(Cl)cn2)c1-n1cc(OC(F)F)cn1 [Compound 97] | 85 | 100 | 100 | 100 | 100 | 10 | 60 | 90 | 98 | 100 | 100 | 100 | 100 | 100 | 100 | 15 | 35 | 30 | 75 | 90
